Assay results from patent publication US20120095056A1, “2,5-DISUBSTITUTED TETRAZOLE DERIVATIVES AND THEIR USE AS NICOTINIC ACETYLCHOLINE RECEPTOR MODULATORS” (NEUROSEARCH A/S, priority 2009, published 2012).

What was measured:
[1] = target: T1, human nicotinic acetylcholine receptor subtype a4b2 (Homo sapiens, UniProt P17787+P43681); assay: FLIPR nAChR a4b2 positive allosteric modulator activity (modulation of nicotine-induced response); format: cell-based; details: shift of nicotine pEC50 in the presence of 10 μM test compound compared to nicotine alone, HEK-293 cells stably expressing hα4β2
T1 construct: expressed in transfected cells
T1 sequence (P43681 29-627 limits assumed): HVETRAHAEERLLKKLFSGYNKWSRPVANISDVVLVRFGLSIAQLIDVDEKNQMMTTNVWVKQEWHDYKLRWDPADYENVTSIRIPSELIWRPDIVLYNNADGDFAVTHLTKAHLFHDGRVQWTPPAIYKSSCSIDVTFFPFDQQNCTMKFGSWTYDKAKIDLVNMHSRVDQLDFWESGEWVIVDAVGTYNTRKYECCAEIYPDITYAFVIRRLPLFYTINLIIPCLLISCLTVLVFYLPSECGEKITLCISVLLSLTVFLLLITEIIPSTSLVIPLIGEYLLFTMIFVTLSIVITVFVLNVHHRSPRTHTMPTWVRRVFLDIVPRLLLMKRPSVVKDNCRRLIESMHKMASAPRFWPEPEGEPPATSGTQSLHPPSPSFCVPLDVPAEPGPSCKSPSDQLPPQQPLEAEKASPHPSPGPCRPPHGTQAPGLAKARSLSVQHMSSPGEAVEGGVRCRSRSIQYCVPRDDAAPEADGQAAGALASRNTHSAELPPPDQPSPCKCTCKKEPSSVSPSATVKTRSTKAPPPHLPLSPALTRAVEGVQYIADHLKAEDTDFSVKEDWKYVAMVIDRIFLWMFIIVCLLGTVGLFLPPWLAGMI
T1 sequence (P17787 26-502): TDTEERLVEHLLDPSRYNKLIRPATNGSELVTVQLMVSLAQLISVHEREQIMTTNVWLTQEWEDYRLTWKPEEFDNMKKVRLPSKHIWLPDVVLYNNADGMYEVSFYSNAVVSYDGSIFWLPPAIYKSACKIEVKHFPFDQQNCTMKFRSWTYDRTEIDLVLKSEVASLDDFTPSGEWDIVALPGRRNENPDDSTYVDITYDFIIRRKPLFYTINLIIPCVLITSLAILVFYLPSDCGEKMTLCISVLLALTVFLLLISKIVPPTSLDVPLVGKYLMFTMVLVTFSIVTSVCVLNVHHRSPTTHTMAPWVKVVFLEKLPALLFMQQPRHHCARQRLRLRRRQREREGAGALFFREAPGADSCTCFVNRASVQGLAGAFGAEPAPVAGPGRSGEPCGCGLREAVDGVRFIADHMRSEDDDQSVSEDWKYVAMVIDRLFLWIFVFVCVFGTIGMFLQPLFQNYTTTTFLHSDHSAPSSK
Method: Characterization of hα4β2 Positive Allosteric Modulators Using FLIPR
The modulator activity is determined as a fluorescence-based assay using a Fluorometric Imaging Plate Reader (FLIPR) as described below in more detail.
Full concentration-response curves of nicotine +/− test compound are generated and delta pEC50 values are calculated based on EC50 values for nicotine +/− test compound. EC50 values (Effective Concentration 50%) represent the concentration of the nicotine, at which the nicotine-induced response is 50% of the maximal nicotine-induced response.

| Delta pEC50 [1] | melting point [°C] | SMILES |
| --- | --- | --- |
| 1.6 |  | N#Cc1cccc(-n2nnc(-c3cncc(F)c3)n2)c1 [Compound 2.9, 3-[5-(5-Fluoro-3-pyridyl)tetrazol-2-yl]benzonitrile] |
| 1.8 |  | N#Cc1cccc(-c2nnn(-c3cncc(F)c3)n2)c1 [Compound 2.6, 3-[2-(5-Fluoro-3-pyridyl)tetrazol-5-yl]benzonitrile] |
| 1.9 |  | N#Cc1cccc(-n2nnc(-c3cccnc3)n2)c1 [Compound 2.1, 3-(5-Pyridin-3-yl-tetrazol-2-yl)-benzonitrile] |
| 1.3 |  | N#Cc1cccc(-n2nnc(-c3ccc(F)nc3)n2)c1 [Compound 2.10, 3-[5-(6-Fluoro-3-pyridyl)tetrazol-2-yl]benzonitrile] |
| 1.9 | 185 to 205 | N#Cc1cccc(-c2nnn(-c3cccnc3)n2)c1 [Compound 2.2, 3-(2-Pyridin-3-yl-2h-tetrazol-5-yl)-benzonitrile] |
| 1.1 |  | N#Cc1ccc(-n2nnc(-c3cccnc3)n2)cc1C#N [Compound 2.14, 4-[5-(3-Pyridyl)tetrazol-2-yl]phthalonitrile] |
|  | 175 to 191 | N#Cc1cccc(-c2nnn(-c3cncc(Br)c3)n2)c1 [Compound 2.5, 3-[2-(5-Bromo-3-pyridyl)tetrazol-5-yl]benzonitrile] |

| SMILES | Delta pEC50 [1] | melting point [°C] |
| --- | --- | --- |
| Cl.N#Cc1cccc(-c2nnn(-c3ccc(F)nc3)n2)c1 [Compound 2.3, 3-[2-(6-Fluoro-3-pyridyl)tetrazol-5-yl]benzonitrile hydrochloride] | 1.7 | 168 to 170 |
